Reference: patent US9290541B2, “TCL1 peptides for immunotherapy” (Board of Regents, The University of Texas System, priority 2011, dated 2016)

Assays:
[1] = system: TCL165-79 peptide-specific T cells; assay: IFN-γ ELISA of peptide-specific T cells with peptide-pulsed T2 cells or B lymphoblastoid cell lines; type: cell-based, human; settings: normal donor-derived T cells; 18 hours
Protocol: FIGS. 3A-E: TCL1-specific cytotoxic T cells can be generated from normal donors. (FIG. 3A) PBMCs from HLA-A2^+ normal donors were stimulated with overlapping 15-mer peptides spanning the entire length of the TCL1 protein (see Table 2). T cells from each condition were washed and incubated with autologous CD3-depleted PBMC as antigen-presenting cells (APC) in the presence or absence of the corresponding peptide. After 18 hours, the production of IFN-γ was determined in the supernatants by ELISA. Asterisk indicates significant IFN-γ production compared with control (P<0.05). Representative data from one of three normal donors tested is shown. (FIG. 3B) T cell lines generated from HLA-A2^+ normal donors using TCL165-79 peptide were incubated with APC in the presence or absence of the TCL165-79 peptide or control HIV Gag77-85 peptide, and intracellular cytokine assay was performed. The percentage of CD4^+ and CD8^+ T cells producing IFN-γ are shown. (FIG. 3C) TCL165-79 peptide-specific T cells were incubated with T2 cells or EBV-transformed B lymphoblastoid cell lines (IHW1003, IHW1019, IHW1089, and IHW1135) mismatched at their MHC class I locus in the presence of the TCL165-79 peptide or control HIV Gag77-85 peptide. IFN-γ production was determined as in (FIG. 3A). The HLA-A alleles for each of the cell lines are shown. (FIG. 3D, FIG. 3E) A 4-hour ^51Cr-release cytotoxicity assay was performed. TCL165-79 peptide-specific T cells were incubated with T2 cells alone or T2 cells pulsed with TCL165-79 peptide or control HIV Gag77-85 peptide, at various effector:target ratios. For MHC blocking assay, an effector:target ratio of 20:1 was used in the presence or absence of isotype control antibody or blocking antibodies against MHC class I, MHC class II, HLA-A2, or HLA-B and C. […]
FIGS. 4A-D: TCL171-78 is the minimal HLA-A*0201-binding peptide. […] After 18 hours, the production of IFN-γ was determined in the supernatants by ELISA. (FIG. 4B) T2 cells were incubated with TCL165-79-derived truncated peptides (SEQ ID NOS:1-2; SEQ ID NOS:12-17; SEQ ID NOS:3-11; and SEQ ID NO:18), and the HLA-A2 binding affinity of each peptide was determined by flow cytometry. The T2 binding index was calculated as described in Materials and Methods. […] (FIG. 4D) TCL165-79 peptide-specific CD8^+ T cells or irrelevant T-cell line were stained with TCL171-78 or HIV Gag77-85 tetramers and analyzed by flow cytometry. […]
(§1) FIGS. 6A-E: TCL171-78 peptide-specific T cells can be generated from lymphoma patients. (FIG. 6A) PBMC and tumor-infiltrating lymphocytes (TILs) derived from HLA-A2^+ patients with chronic lymphocytic leukemia (CLL) or follicular lymphoma (FL) were stimulated in vitro with TCL165-79 After five stimulations, IFN-γ production in response to TCL165-79 peptide was determined as in FIG. 3A. […]

T2 cells = assay: 4-hour 51Cr-release cytotoxicity assay with peptide-pulsed T2 cells; type: cell-based, human; settings: 4-hour 51Cr release
Protocol: FIGS. 3A-E: TCL1-specific cytotoxic T cells can be generated from normal donors. (FIG. 3A) PBMCs from HLA-A2^+ normal donors were stimulated with overlapping 15-mer peptides spanning the entire length of the TCL1 protein (see Table 2). T cells from each condition were washed and incubated with autologous CD3-depleted PBMC as antigen-presenting cells (APC) in the presence or absence of the corresponding peptide. After 18 hours, the production of IFN-γ was determined in the supernatants by ELISA. Asterisk indicates significant IFN-γ production compared with control (P<0.05). Representative data from one of three normal donors tested is shown. (FIG. 3B) T cell lines generated from HLA-A2^+ normal donors using TCL165-79 peptide were incubated with APC in the presence or absence of the TCL165-79 peptide or control HIV Gag77-85 peptide, and intracellular cytokine assay was performed. The percentage of CD4^+ and CD8^+ T cells producing IFN-γ are shown. (FIG. 3C) TCL165-79 peptide-specific T cells were incubated with T2 cells or EBV-transformed B lymphoblastoid cell lines (IHW1003, IHW1019, IHW1089, and IHW1135) mismatched at their MHC class I locus in the presence of the TCL165-79 peptide or control HIV Gag77-85 peptide. IFN-γ production was determined as in (FIG. 3A). The HLA-A alleles for each of the cell lines are shown. (FIG. 3D, FIG. 3E) A 4-hour ^51Cr-release cytotoxicity assay was performed. TCL165-79 peptide-specific T cells were incubated with T2 cells alone or T2 cells pulsed with TCL165-79 peptide or control HIV Gag77-85 peptide, at various effector:target ratios. For MHC blocking assay, an effector:target ratio of 20:1 was used in the presence or absence of isotype control antibody or blocking antibodies against MHC class I, MHC class II, HLA-A2, or HLA-B and C. All cytotoxicity assays were performed in triplicate wells and mean and standard deviation are shown.
(§2) FIGS. 4A-D: TCL171-78 is the minimal HLA-A*0201-binding peptide. (FIG. 4A) TCL165-79 peptide-specific T cells derived from HLA-A2^+ normal donors were incubated in the presence or absence of T2 cells and TCL165-79 derived truncated peptides (SEQ ID NOS:1-2; SEQ ID NOS:12-17; SEQ ID NOS:3-11; and SEQ ID NO:18) Flu matrix peptide (FMP58-66) and Gag77-85 peptide were used as controls. After 18 hours, the production of IFN-γ was determined in the supernatants by ELISA. (FIG. 4B) T2 cells were incubated with TCL165-79-derived truncated peptides (SEQ ID NOS:1-2; SEQ ID NOS:12-17; SEQ ID NOS:3-11; and SEQ ID NO:18), and the HLA-A2 binding affinity of each peptide was determined by flow cytometry. The T2 binding index was calculated as described in Materials and Methods. […] (FIG. 4D) TCL165-79 peptide-specific CD8^+ T cells or irrelevant T-cell line were stained with TCL171-78 or HIV Gag77-85 tetramers and analyzed by flow cytometry. […]
as §1

HLA-A2 = molecular target: T1, HLA-A2 (Homo sapiens, UniProt P04439, D140Y/D185E/D98H/E176V/E277Q/G131W/G231S/I119V/I121R/I166T/I218V/L300P/L318F/N151K/N90K/P208A/P217A/Q86G/Q94H/R138H/R169H/T345S); assay: HLA-A2-binding assay (T2 binding index); settings: T2 cells, 20 μg/ml peptide, 24 hours
T1 construct: endogenous in cells; host or cells: T2 hybridoma cells (TAP-deficient, HLA-A2+)
Protocol: as §2
TAP-deficient T2 cells were incubated with 20 μg/ml of peptides and 3 μg/ml of β2-microglobulin (Sigma-Aldrich, Cat # M4890) for 24 hours at 37° C. and 5% CO2 in air. The cells were then stained with anti-HLA-A2 PE antibody (BD Biosciences, Cat #560168), and the level of HLA-A2 expression was determined by flow cytometry. […]

CD8+ T cells = assay: Tetramer staining by flow cytometry; type: cell-based, human; settings: for percentage of tetramer positive CD8+ T cells, median / percentage of tetramer positive CD8+ T cells, range: two in vitro stimulations with TCL165-79
Protocol: FIGS. 4A-D: TCL171-78 is the minimal HLA-A*0201-binding peptide. (FIG. 4A) TCL165-79 peptide-specific T cells derived from HLA-A2^+ normal donors were incubated in the presence or absence of T2 cells and TCL165-79 derived truncated peptides (SEQ ID NOS:1-2; SEQ ID NOS:12-17; SEQ ID NOS:3-11; and SEQ ID NO:18) Flu matrix peptide (FMP58-66) and Gag77-85 peptide were used as controls. After 18 hours, the production of IFN-γ was determined in the supernatants by ELISA. (FIG. 4B) T2 cells were incubated with TCL165-79-derived truncated peptides (SEQ ID NOS:1-2; SEQ ID NOS:12-17; SEQ ID NOS:3-11; and SEQ ID NO:18), and the HLA-A2 binding affinity of each peptide was determined by flow cytometry. The T2 binding index was calculated as described in Materials and Methods. (FIG. 4C) TCL165-79 (SEQ ID NO:1) peptide-specific T cells were incubated with T2 cells pulsed with TCL165-79-derived truncated peptides (SEQ ID NO:1; SEQ ID NO:8; SEQ ID NO:10; SEQ ID NO:11; SEQ ID NO:18) or control HIV Gag77-85 peptide and a 4-hour ^51Cr-release cytotoxicity assay was performed. The percent specific lysis is shown. (FIG. 4D) TCL165-79 peptide-specific CD8^+ T cells or irrelevant T-cell line were stained with TCL171-78 or HIV Gag77-85 tetramers and analyzed by flow cytometry. The percentage of tetramer positive T cells is shown. Data in panels A-D are representative of three independent experiments each.
FIGS. 6A-E: TCL171-78 peptide-specific T cells can be generated from lymphoma patients. (FIG. 6A) PBMC and tumor-infiltrating lymphocytes (TILs) derived from HLA-A2^+ patients with chronic lymphocytic leukemia (CLL) or follicular lymphoma (FL) were stimulated in vitro with TCL165-79 After five stimulations, IFN-γ production in response to TCL165-79 peptide was determined as in FIG. 3A. (FIG. 6B, FIG. 6E) The cytotoxic function of TCL165-79 peptide-specific T cells generated above was tested against T2 cells pulsed with TCL165-79 peptide or HIV Gag77-85 peptide (FIG. 6B) or primary autologous or allogeneic HLA-A2^+ or HLA-A2^− mantle cell lymphoma (MCL Tu) or FL tumor cells (FL Tu) or tumor-free PBMC from MCL3 and FL5 patients (MCL3-PB and FL5-PB) or HLA-A2^+ MCF-7 cell line (FIG. 6E). (FIG. 6C) The percentage of tetramer positive CD8^+ T cells in each of the TCL1-specific T-cell lines generated from lymphoma patients is shown. (FIG. 6D) The expression of TCL1 in each of the primary lymphoma samples as determined by flow cytometry is shown. All cytotoxicity assays were performed in triplicate wells and mean and standard deviation are shown. CLL1-PB-T: TCL1-specific CTL generated from peripheral blood T cells of CLL patient 1; FL5-PB-T: TCL1-specific CTL generated from peripheral blood T cells of FL patient 5; FL5-TILs-T: TCL1-specific CTL generated from tumor infiltrating T cells of FL patient 5.
FIGS. 7A-B: TCL171-78 peptide-specific T cells are increased in lymphoma patients. PBMCs from HLA-A2^+ normal donors (ND, n=8) or lymphoma patients [chronic lymphocytic leukemia (CLL, n=2), mantle cell lymphoma (MCL, n=5); follicular lymphoma (FL, n=4); diffuse large B-cell lymphoma (n=2); splenic marginal zone B-cell lymphoma (SMZL, n=2)] were stimulated in vitro twice with TCL165-79 peptide and stained with TCL171-78 tetramer or HIV Gag77-85 tetramer. Representative data of the tetramer staining (FIG. 7A) and results from all samples analyzed (FIG. 7B) are shown. P value on the top of graph represents comparison between normal donors and all lymphoma patient samples. P values to the right represent comparison between normal donors and patients from each lymphoma subtype. All P values were calculated by two-tailed Student's t test.
Flow cytometry. For intracellular staining, tumor or normal B cells were first surface stained with CD3 and CD20 and then fixed and permeabilized using BD Biosciences Cytofix/Cytoperm™ Plus Fixation/Permeabilization kit as per manufacturer's instructions. […]

[2] = system: autologous FL tumor cells; assay: Mechanism of cytotoxicity of TCL1-specific CTLs against autologous follicular lymphoma cells; type: cell-based, human; settings: effector:target 20:1; 4 hour chromium-51 release; antibodies 10 μg/ml
Protocol: FIG. 10: Mechanism of cytotoxicity of TCL1-specific CTLs against autologous follicular lymphoma cells. TCL1-specific T cells were generated from PBMC obtained from a FL patient and cultured with autologous FL tumor cells preincubated with or without 10 μg/ml of MHC class I, class II, and isotype control antibodies at a ratio of 20:1 (Effector:Target). A standard 4 hour chromium-51 release assay was performed. MHC class I but not MHC class II or isotype control antibodies inhibited the cytolysis autologous lymphoma cells.

[3] = PBMC of HLA-A2+ lymphoma patients (N=15)

In the case of LLPIMWQL [TCL171-78], the “IFN-γ production by TCL165-79 peptide-specific T cells with T2 cells pulsed with truncated peptides” value [1] is reported as “induced significant IFN-γ production”, the “lysis of T2 cells pulsed with truncated peptides by TCL165-79 peptide-specific T cells” value (“lysis of T2 cells pulsed” for short) (T2 cells) is reported as “specifically lysed” and the “binding to HLA-A2” value (HLA-A2) is reported as “bound to HLA-A2”. The “percentage of tetramer positive CD8+ T cells, median” value (CD8+ T cells; [3]) was 2.8%, the “percentage of tetramer positive CD8+ T cells, range” value (CD8+ T cells; [3]) was 0.88-6% and the “tetramer positive CD8+ T cells” value (CD8+ T cells; T-cell lines from lymphoma patients, TCL171-78 tetramer) was 10.8-23%. The “percentage of tetramer positive CD8+ T cells, median” value (CD8+ T cells; normal donor PBMC (N=8)) was 1.35%, the “percentage of tetramer positive CD8+ T cells, range” value (CD8+ T cells; normal donor PBMC (N=8)) was 0.38-2.2% and the “tetramer positive TCL165-79 peptide-specific CD8+ T cells” value (CD8+ T cells; normal donor-derived T cell line, TCL171-78 tetramer) was 8.2%.
In the case of SLLPIMWQL [TCL170-79], the “lysis of T2 cells pulsed” value (T2 cells) is reported as “specifically lysed”.
C/C=C/[C@H]1O[C@@](O)([C@@H](C)[C@H](O)[C@H](C)[C@H]2OC(=O)/C(OC)=C/C(C)=C/[C@@H](C)[C@@H](O)[C@@H](CC)[C@@H](O)[C@H](C)C/C(C)=C/C=C/[C@@H]2OC)C[C@@H](O[C@H]2C[C@@H](O)[C@H](OC(N)=O)[C@@H](C)O2)[C@@H]1C [Concanamycin A] was tested, and the “inhibition of cytolysis of autologous lymphoma cells by TCL1-specific CTLs” value [2] was “significantly inhibited”.
In the case of LLPIMWQLY [TCL171-79], the “lysis of T2 cells pulsed” value (T2 cells) is reported as “specifically lysed”.
